Source: PubChem BioAssay AID2060511 (Molecular Pharmacology Branch, DTP, NCI, 2025)

System: 422866-222-R5-J1-PDC spheroids with HUVEC/MSC, viability
Test: Anticancer human tumor 422866-222-R5-J1-PDC patient-derived pancreatic adenocarcinoma cell line growth inhibition [GQUAD]
Conditions: for IC50: curve of first compound; for viability, T/C: stronger effect = lower value
Outline: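 Multi-cell-type spheroids of tumor cells with HUVEC and mesenchymal stem cells, treated with drug combinations. Concentrations descend in half-log steps from near clinical Cmax, or from 10 microM where Cmax is unknown; viability read-out.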

[1] = second compound 0.0316 µM, first compound 0.000999 µM
[2] = second compound 0.0316 µM, first compound 0.00316 µM
[3] = second compound 0.0316 µM, first compound 0.00999 µM
[4] = second compound 0.0316 µM, first compound 0.0316 µM
[5] = second compound 0.0316 µM, first compound 0.0999 µM
[6] = second compound 0.0316 µM, first compound 0.316 µM
[7] = second compound 0.1 µM, first compound 0.000999 µM
[8] = second compound 0.1 µM, first compound 0.00316 µM
[9] = second compound 0.1 µM, first compound 0.00999 µM
[10] = second compound 0.1 µM, first compound 0.0316 µM
[11] = second compound 0.1 µM, first compound 0.0999 µM
[12] = second compound 0.1 µM, first compound 0.316 µM
[13] = second compound 0.316 µM, first compound 0.000999 µM
[14] = second compound 0.316 µM, first compound 0.00316 µM
[15] = second compound 0.316 µM, first compound 0.00999 µM
[16] = second compound 0.316 µM, first compound 0.0316 µM
[17] = second compound 0.316 µM, first compound 0.0999 µM
[18] = second compound 0.316 µM, first compound 0.316 µM
[19] = second compound 1 µM, first compound 0.000999 µM
[20] = second compound 1 µM, first compound 0.00316 µM
[21] = second compound 1 µM, first compound 0.00999 µM
[22] = second compound 1 µM, first compound 0.0316 µM
[23] = second compound 1 µM, first compound 0.0999 µM
[24] = second compound 1 µM, first compound 0.316 µM
[25] = second compound 3.16 µM, first compound 0.000999 µM
[26] = second compound 3.16 µM, first compound 0.00316 µM
[27] = second compound 3.16 µM, first compound 0.00999 µM
[28] = second compound 3.16 µM, first compound 0.0316 µM
[29] = second compound 3.16 µM, first compound 0.0999 µM
[30] = second compound 3.16 µM, first compound 0.316 µM
[31] = second compound 10 µM, first compound 0.000999 µM
[32] = second compound 10 µM, first compound 0.00316 µM
[33] = second compound 10 µM, first compound 0.00999 µM
[34] = second compound 10 µM, first compound 0.0316 µM
[35] = second compound 10 µM, first compound 0.0999 µM
[36] = second compound 10 µM, first compound 0.316 µM
[37] = second compound 0.0316 µM, first compound 0.1 µM
[38] = second compound 0.0316 µM, first compound 1 µM
[39] = second compound 0.0316 µM, first compound 3.16 µM
[40] = second compound 0.0316 µM, first compound 10 µM
[41] = second compound 0.1 µM, first compound 0.1 µM
[42] = second compound 0.1 µM, first compound 1 µM
[43] = second compound 0.1 µM, first compound 3.16 µM
[44] = second compound 0.1 µM, first compound 10 µM
[45] = second compound 0.316 µM, first compound 0.1 µM
[46] = second compound 0.316 µM, first compound 1 µM
[47] = second compound 0.316 µM, first compound 3.16 µM
[48] = second compound 0.316 µM, first compound 10 µM
[49] = second compound 1 µM, first compound 0.1 µM
[50] = second compound 1 µM, first compound 1 µM
[51] = second compound 1 µM, first compound 3.16 µM
[52] = second compound 1 µM, first compound 10 µM
[53] = second compound 3.16 µM, first compound 0.1 µM
[54] = second compound 3.16 µM, first compound 1 µM
[55] = second compound 3.16 µM, first compound 3.16 µM
[56] = second compound 3.16 µM, first compound 10 µM
[57] = second compound 10 µM, first compound 0.1 µM
[58] = second compound 10 µM, first compound 1 µM
[59] = second compound 10 µM, first compound 3.16 µM
[60] = second compound 10 µM, first compound 10 µM
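Further: spheroids exposed to compounds for seven days before reading.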
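Wherever viability, T/C is given: percent viability relative to DMSO vehicle control taken as 100%.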

CC[C@@]1(O)C(=O)OCc2c1cc1n(c2=O)Cc2cc3c(CN(C)C)c(O)ccc3nc2-1 + Cc1[nH]c2ccc(F)cc2c1-c1nc2c3cccnc3c3ncccc3c2[nH]1
IC50 (second compound 0.0316 µM): 64.6 nM | IC50 (second compound 0.1 µM): 86.6 nM | IC50 (second compound 0.316 µM): 128 nM | IC50 (second compound 1 µM): 102 nM | IC50 (second compound 3.16 µM): 79.7 nM | IC50 (second compound 10 µM): 53 nM | viability, T/C [1]: 92.9% | viability, T/C [2]: 95.8% | viability, T/C [3]: 92.8% | viability, T/C [4]: 56.9% | viability, T/C [5]: 46.2% | viability, T/C [6]: 45.2% | viability, T/C [7]: 104% | viability, T/C [8]: 90.8% | viability, T/C [9]: 86.2% | viability, T/C [10]: 61.7% | viability, T/C [11]: 48.8% | viability, T/C [12]: 36.8% | viability, T/C [13]: 99.8% | viability, T/C [14]: 88.4% | viability, T/C [15]: 85.5% | viability, T/C [16]: 71.7% | viability, T/C [17]: 49.2% | viability, T/C [18]: 43.4% | viability, T/C [19]: 92.7% | viability, T/C [20]: 98.5% | viability, T/C [21]: 76.2% | viability, T/C [22]: 74.5% | viability, T/C [23]: 46.4% | viability, T/C [24]: 39.8% | viability, T/C [25]: 83.7% | viability, T/C [26]: 97.3% | viability, T/C [27]: 78.4% | viability, T/C [28]: 69.2% | viability, T/C [29]: 44.4% | viability, T/C [30]: 38% | viability, T/C [31]: 69.7% | viability, T/C [32]: 79.2% | viability, T/C [33]: 73.5% | viability, T/C [34]: 56.3% | viability, T/C [35]: 42.8% | viability, T/C [36]: 40.8%

CCc1c2c(nc3ccc(O)cc13)-c1cc3c(c(=O)n1C2)COC(=O)[C@]3(O)CC + Cc1[nH]c2ccc(F)cc2c1-c1nc2c3cccnc3c3ncccc3c2[nH]1
IC50 (second compound 0.0316 µM): 2.5 nM | IC50 (second compound 0.1 µM): 2.17 nM | IC50 (second compound 0.316 µM): < 0.999 nM | IC50 (second compound 1 µM): 1.99 nM | IC50 (second compound 3.16 µM): 1.44 nM | IC50 (second compound 10 µM): < 0.999 nM | viability, T/C [1]: 61.3% | viability, T/C [2]: 43.6% | viability, T/C [3]: 41.5% | viability, T/C [4]: 41.4% | viability, T/C [5]: 36.3% | viability, T/C [6]: 30.3% | viability, T/C [7]: 60% | viability, T/C [8]: 44.6% | viability, T/C [9]: 38% | viability, T/C [10]: 34.3% | viability, T/C [11]: 38.7% | viability, T/C [12]: 28.1% | viability, T/C [13]: 52.8% | viability, T/C [14]: 40.8% | viability, T/C [15]: 39.5% | viability, T/C [16]: 45% | viability, T/C [17]: 39.2% | viability, T/C [18]: 25.9% | viability, T/C [19]: 55.8% | viability, T/C [20]: 45.6% | viability, T/C [21]: 39.9% | viability, T/C [22]: 38% | viability, T/C [23]: 38.3% | viability, T/C [24]: 31.2% | viability, T/C [25]: 54.3% | viability, T/C [26]: 40.9% | viability, T/C [27]: 36.4% | viability, T/C [28]: 35.4% | viability, T/C [29]: 37.7% | viability, T/C [30]: 31.6% | viability, T/C [31]: 48.8% | viability, T/C [32]: 41.5% | viability, T/C [33]: 44% | viability, T/C [34]: 40.7% | viability, T/C [35]: 34.2% | viability, T/C [36]: 27.7%

COc1cccc2c1C(=O)c1c(O)c3c(c(O)c1C2=O)CC(O)(C(=O)CO)CC3OC1CC(N)C(O)C(C)O1 (stereo not drawn) + Cc1[nH]c2ccc(F)cc2c1-c1nc2c3cccnc3c3ncccc3c2[nH]1
IC50 (second compound 0.0316 µM): 474 nM | IC50 (second compound 0.1 µM): 782 nM | IC50 (second compound 0.316 µM): 639 nM | IC50 (second compound 1 µM): 463 nM | IC50 (second compound 3.16 µM): 349 nM | IC50 (second compound 10 µM): 529 nM | viability, T/C [4]: 108% | viability, T/C [37]: 70.2% | viability, T/C [6]: 63.6% | viability, T/C [38]: 37.3% | viability, T/C [39]: 30% | viability, T/C [40]: 34.7% | viability, T/C [10]: 113% | viability, T/C [41]: 65.6% | viability, T/C [12]: 69.2% | viability, T/C [42]: 53.4% | viability, T/C [43]: 34% | viability, T/C [44]: 35% | viability, T/C [16]: 92% | viability, T/C [45]: 67.9% | viability, T/C [18]: 54% | viability, T/C [46]: 55.5% | viability, T/C [47]: 31.7% | viability, T/C [48]: 35.9% | viability, T/C [22]: 93.9% | viability, T/C [49]: 65.7% | viability, T/C [24]: 54.5% | viability, T/C [50]: 46.3% | viability, T/C [51]: 37.2% | viability, T/C [52]: 36.1% | viability, T/C [28]: 73.4% | viability, T/C [53]: 65.6% | viability, T/C [30]: 48.1% | viability, T/C [54]: 45.8% | viability, T/C [55]: 31.6% | viability, T/C [56]: 37.8% | viability, T/C [34]: 77.7% | viability, T/C [57]: 64.9% | viability, T/C [36]: 52.5% | viability, T/C [58]: 48% | viability, T/C [59]: 34.3% | viability, T/C [60]: 30.4%

Nc1ccn(C2OC(CO)C(O)C2(F)F)c(=O)n1 (stereo not drawn) + Cc1[nH]c2ccc(F)cc2c1-c1nc2c3cccnc3c3ncccc3c2[nH]1
IC50 (second compound 0.0316 µM): 800 nM | IC50 (second compound 0.1 µM): 427 nM | IC50 (second compound 0.316 µM): 1200 nM | IC50 (second compound 1 µM): 504 nM | IC50 (second compound 3.16 µM): 347 nM | IC50 (second compound 10 µM): 490 nM | viability, T/C [4]: 85.1% | viability, T/C [37]: 75.8% | viability, T/C [6]: 63.3% | viability, T/C [38]: 46% | viability, T/C [39]: 41.1% | viability, T/C [40]: 41.8% | viability, T/C [10]: 83.8% | viability, T/C [41]: 82.2% | viability, T/C [12]: 52.5% | viability, T/C [42]: 42.2% | viability, T/C [43]: 43.7% | viability, T/C [44]: 42.5% | viability, T/C [16]: 97.8% | viability, T/C [45]: 80.9% | viability, T/C [18]: 67.8% | viability, T/C [46]: 49.9% | viability, T/C [47]: 42% | viability, T/C [48]: 35.2% | viability, T/C [22]: 91.5% | viability, T/C [49]: 75.9% | viability, T/C [24]: 53.2% | viability, T/C [50]: 45.1% | viability, T/C [51]: 45.2% | viability, T/C [52]: 43.3% | viability, T/C [28]: 83.4% | viability, T/C [53]: 62.3% | viability, T/C [30]: 52.6% | viability, T/C [54]: 42.3% | viability, T/C [55]: 42.2% | viability, T/C [56]: 42.9% | viability, T/C [34]: 72.3% | viability, T/C [57]: 67.6% | viability, T/C [36]: 55.4% | viability, T/C [58]: 39.9% | viability, T/C [59]: 43% | viability, T/C [60]: 41.2%
